Reference: patent publication US12486239B2, “Benzotriazole compound, light absorber, and resin composition” (MITSUI CHEMICALS, INC., priority 2019, dated 2025)

Tests used:
Assay type in all cases: physicochemical
[1] = Solubility to various organic solvents; settings: room temperature; for Solubility: MEK / Solubility: MMA / Solubility: Toluene / Solubility: PGMEA / Solubility: EA: Table 6; for Solubility: MEK / Solubility to various organic solvents: MEK: methyl ethyl ketone; for Solubility: MMA / Solubility to various organic solvents: MMA: methyl methacrylate; for Solubility: EA / Solubility to various organic solvents: Ethyl acetate: ethyl acetate; for Solubility to various organic solvents: PGMEA / Solubility to various organic solvents: Ethyl acetate / Solubility to various organic solvents: MEK / Solubility to various organic solvents: MMA / Solubility to various organic solvents: Toluene: Table 1
Description: As Comparative Example 1, the solubility of TINUVIN326 (manufactured by BASF Japan Ltd.) represented by the following Formula (TI) was measured by the following method.
To 0.5 g of the benzotriazole compound, the various organic solvents shown in Table 1 were added such that the total mass was about 10 g, the mixture was irradiated with ultrasonic waves for about 30 minutes, and thereafter stirred at room temperature for 2 hours to prepare a dispersion of about 10% by mass.
The dispersion was filtered through a membrane filter (0.2 μm), and the obtained residue was dried in a dryer at 60° C. for 1 hour, and then the mass of the residue was measured.
The solubility of the benzotriazole compound to the solvent was expressed by the following formula. Solubility (% by mass)=(W0−W1)/W0
W0 is the mass of the benzotriazole compound before the treatment, and W1 is the mass of the residue after drying (that is, the dissolution residue of the benzotriazole compound). In a case in which no residue remained on the filter, the solubility was determined as 5% by mass or more.
The solubility of the benzotriazole compound obtained in each Example and Comparative Example was measured by the following method.
To 0.5 g of the benzotriazole compound, the various organic solvents shown in Table 6 were added such that the total mass was about 10 g, the mixture was irradiated with ultrasonic waves for about 30 minutes, and thereafter stirred at room temperature for 2 hours to prepare a dispersion of about 10% by mass.

[2] = Maximum absorption wavelength and gram absorption coefficient, toluene solution 0.002 g/L (second embodiment); settings: optical path length 10 mm
Description: The maximum absorption wavelength of the benzotriazole compound of the second embodiment is measured using a spectrophotometer (for example, Shimadzu Spectrophotometer UV-1600 manufactured by Shimadzu Corporation) at optical path length of 10 mm using a toluene solution having a concentration of 0.002 g/L.
In Examples according to the second embodiment, the maximum absorption wavelength and the gram absorption coefficient of the benzotriazole compound were measured using a Shimadzu Spectrophotometer UV-1600 manufactured by Shimadzu Corporation at an optical path length of 10 mm using a toluene solution having a concentration of 0.002 g/L.

[3] = Heat resistance: TG5% decomposition temperature; settings: nitrogen atmosphere, heating rate 10° C./min; for Decomposition temperature (Tg-5% by mass): Table 6; for T-5% by mass: Table 2
Description: In each Example and Comparative Example, the decomposition temperature was measured by the following method.
Using a thermal analyzer Rigaku ThermoPlus Evo TG8120, the TG5% decomposition temperature (T-5% by mass) was measured under a nitrogen atmosphere at a heating rate of 10° C./min and a temperature range of from room temperature to 500° C.
The higher the T-5% by mass, the higher the heat resistance.
The decomposition temperature of the benzotriazole compound obtained in each Example and Comparative Example was measured by the following method.

[4] = Maximum absorption wavelength and gram absorption coefficient, toluene solution 0.01 g/L (first embodiment); settings: optical path length 10 mm
Description: The maximum absorption wavelength of the benzotriazole compound of the first embodiment is measured using a spectrophotometer (for example, Shimadzu Spectrophotometer UV-1600 manufactured by Shimadzu Corporation) at an optical path length of 10 mm using a toluene solution having a concentration of 0.01 g/L.
In Examples according to the first embodiment, the maximum absorption wavelength and the gram absorption coefficient of the benzotriazole compound were measured using a Shimadzu Spectrophotometer UV-1600 manufactured by Shimadzu Corporation at an optical path length of 10 mm using a toluene solution having a concentration of 0.01 g/L.

Compound | Solubility: MEK [1] | Solubility: MMA [1] | Solubility: Toluene [1] | gram absorption coefficient [2] [mL/g/cm] | maximum absorption [2] [nm] | Decomposition temperature (Tg-5% by mass) [3] [°C] | Solubility: PGMEA [1] [% by mass] | Solubility: EA [1] [% by mass] | gram absorption coefficient [4] | maximum absorption [4] [nm] | Solubility to various organic solvents: PGMEA [1] | Solubility to various organic solvents: Ethyl acetate [1] | Solubility to various organic solvents: MEK [1] | Solubility to various organic solvents: MMA [1] | Solubility to various organic solvents: Toluene [1] [% by mass] | T-5% by mass [3] [°C]
CCC(C)(C)C(=O)Nc1ccc(-n2nc3ccc(Cl)cc3n2)c(O)c1 [Compound (59)] |  |  |  |  |  |  |  |  | 8.40×10^4 g/mL·cm | 359.0 | 5 or more % by mass | 5 or more % by mass | 5 or more % by mass | 5 or more % by mass | 2 | 309.1
CCCCCCCCSc1ccc2nn(-c3ccc(NC(=O)CCCCCC)cc3O)nc2c1 [Compound (54)] |  |  |  |  |  |  |  |  | 7.10×10^4 g/mL·cm | 371.0 | 0.3 % by mass | 0.3 % by mass | 1 % by mass | 0.5 % by mass | 0.3 | 359.7
CCNc1cc(O)c(-n2nc3ccc(OC)cc3n2)cc1C [Compound (111)] |  |  |  |  |  |  |  |  | 1.04×10^5 g/mL·cm | 378.5 | 3 % by mass | 5 % by mass | 10 % by mass | 4 % by mass | 1 | 252.6

Other lines, results leading:

Solubility: MEK [1] | Solubility: MMA [1] | Solubility: Toluene [1] | gram absorption coefficient [2] [mL/g/cm] | maximum absorption [2] [nm] | Decomposition temperature (Tg-5% by mass) [3] [°C] | Solubility: PGMEA [1] [% by mass] | Solubility: EA [1] [% by mass] | gram absorption coefficient [4] | maximum absorption [4] [nm] | Solubility to various organic solvents: PGMEA [1] | Solubility to various organic solvents: Ethyl acetate [1] | Solubility to various organic solvents: MEK [1] | Solubility to various organic solvents: MMA [1] | Solubility to various organic solvents: Toluene [1] [% by mass] | T-5% by mass [3] [°C] | Compound
3≤ % by mass | 3≤ % by mass | 3≤ % by mass | 63500 | 368.0 | 322.2 |  |  |  |  |  |  |  |  |  |  | Cc1cc(-n2nc3ccc(SCCOCCSc4ccc5nn(-c6cc(C)cc(C(C)(C)C)c6O)nc5c4)cc3n2)c(O)c(C(C)(C)C)c1 [Compound D2]
≤0.5 % by mass | ≤0.5 % by mass | 1.5≤ % by mass | 62000 | 364.5 | 335.1 | ≤1 | ≤1 |  |  |  |  |  |  |  |  | Cc1cc(-n2nc3ccc(SCCOC(=O)c4cc(C(=O)OCCSc5ccc6nn(-c7cc(C)cc(C(C)(C)C)c7O)nc6c5)cc(C(=O)OCCSc5ccc6nn(-c7cc(C)cc(C(C)(C)C)c7O)nc6c5)c4)cc3n2)c(O)c(C(C)(C)C)c1 [Compound D3]
≤1 % by mass | ≤2 % by mass | 3≤ % by mass | 59200 | 368.5 | 331.7 | ≤1 | ≤1 |  |  |  |  |  |  |  |  | Cc1cc(-n2nc3ccc(SCCOCCOCCSc4ccc5nn(-c6cc(C)cc(C(C)(C)C)c6O)nc5c4)cc3n2)c(O)c(C(C)(C)C)c1 [Compound D1]
